In the assay the target is T1, apelin receptor (APJ) (Homo sapiens, UniProt P35414).
T1 sequence (P35414 1-380): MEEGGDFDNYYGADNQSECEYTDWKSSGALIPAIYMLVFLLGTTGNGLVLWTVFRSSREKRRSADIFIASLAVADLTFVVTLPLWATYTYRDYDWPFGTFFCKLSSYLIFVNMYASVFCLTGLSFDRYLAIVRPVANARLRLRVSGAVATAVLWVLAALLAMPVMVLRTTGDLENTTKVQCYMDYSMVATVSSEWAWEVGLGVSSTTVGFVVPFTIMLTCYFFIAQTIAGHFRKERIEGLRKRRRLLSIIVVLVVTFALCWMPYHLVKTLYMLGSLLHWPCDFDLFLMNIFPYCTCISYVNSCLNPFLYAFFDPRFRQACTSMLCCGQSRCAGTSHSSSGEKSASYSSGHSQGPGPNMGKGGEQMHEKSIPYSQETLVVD
The assay can be described thus: in vitro activity as apelin agonists (methods of Giddings et al.; Apelin-13 positive control). The note with it: apelin agonist activity, average; read-out: EC50 (nM) Ave. The assay is classed as cell-based. The text has this: The compounds above were studied for their in vitro activity as apelin agonists using the methods described by Giddings et al. Giddings et al., 2010 Int J High Thro Screen. 1:39-47, the contents of which are hereby incorporated by reference in its entirety. The methods described in Giddings et al. were used as described and Apelin-13 was a positive control.

Structures are written as SMILES.

For 21 compounds, EC50 results are on record in US11926612B2, “Heterocyclic apelin receptor (APJ) agonists and uses thereof” (Research Triangle Institute, priority 2016, dated 2024).

Regarding `O=C(C[C@H](CCN1CCCCC1)NC(=O)c1nc(C2CCCC2)n(-c2ccccc2C(F)(F)F)n1)NC1CCC1` [compound 444, (3S)-N-cyclobutyl-3-({5-cyclopentyl-1-[2-(trifluoromethyl)phenyl]-1H-1,2,4-triazol-3-yl}formamido)-5-(piperidin-1-yl)pentanamide], the EC50 is 40 nM.

On to `O=C(C[C@H](CCN1CCCCC1)NC(=O)c1nc(-c2ccccc2C(F)(F)F)n(C2CCCC2)n1)NC1CCC1` [compound 446, (3S)-N-cyclobutyl-3-({1-cyclopentyl-5-[2-(trifluoromethyl)phenyl]-1H-1,2,4-triazol-3-yl}formamido)-5-(piperidin-1-yl)pentanamide], for which the EC50 is 310 nM.

In the case of `O=C(C[C@H](CCN1CCCC(F)(F)C1)NC(=O)c1nc(-c2ccccc2C(F)(F)F)n(C2CCCC2)n1)NC1CCC1` [compound 453, (3S)-N-cyclobutyl-3-({1-cyclopentyl-5-[2-(trifluoromethyl)phenyl]-1H-1,2,4-triazol-3-yl}formamido)-5-(3,3-difluoropiperidin-1-yl)pentanamide], the EC50 worked out at 9 nM.

As to `O=C(C[C@H](CCN1CCCC(F)(F)C1)NC(=O)c1nc(C2CCCC2)n(-c2ccccc2C(F)(F)F)n1)NC1CCC1` [compound 454, (3S)-N-cyclobutyl-3-({5-cyclopentyl-1-[2-(trifluoromethyl)phenyl]-1H-1,2,4-triazol-3-yl}formamido)-5-(3,3-difluoropiperidin-1-yl)pentanamide], the EC50 came to 8.3 nM.

For the compound `CN(C(=O)C[C@H](CCN1CCCC(F)(F)C1)NC(=O)c1nc(C2CCCC2)n(-c2ccccc2C(F)(F)F)n1)c1nccs1` [compound 455, (3S)-3-({5-cyclopentyl-1-[2-(trifluoromethyl)phenyl]-1H-1,2,4-triazol-3-yl}formamido)-5-(3,3-difluoropiperidin-1-yl)-N-methyl-N-(1,3-thiazol-2-yl)pentanamide], the EC50 is 22 nM.

As to `CN(C(=O)C[C@H](CCN1CCCC(F)(F)C1)NC(=O)c1nc(-c2ccccc2C(F)(F)F)n(C2CCCC2)n1)c1nccs1` [compound 456, (3S)-3-({1-cyclopentyl-5-[2-(trifluoromethyl)phenyl]-1H-1,2,4-triazol-3-yl}formamido)-5-(3,3-difluoropiperidin-1-yl)-N-methyl-N-(1,3-thiazol-2-yl)pentanamide], the EC50 stood at 48 nM.

`O=C(O)C[C@H](CCN1CCCC(F)(F)C1)NC(=O)c1nc(-c2ccccc2C(F)(F)F)n(C2CCCC2)n1` [compound 462, (3S)-3-({1-cyclopentyl-5-[2-(trifluoromethyl)phenyl]-1H-1,2,4-triazol-3-yl}formamido)-5-(3,3-difluoropiperidin-1-yl)pentanoic acid]: the EC50 stood at 384 nM.

In the case of `CN(C(=O)C[C@H](CCN1CCCC(F)(F)C1)NC(=O)c1cn(-c2ccccc2C(F)(F)F)c(C2CCCC2)n1)c1nccs1` [compound 473, (3S)-3-({2-cyclopentyl-1-[2-(trifluoromethyl)phenyl]-1H-imidazol-4-yl}formamido)-5-(3,3-difluoropiperidin-1-yl)-N-methyl-N-(1,3-thiazol-2-yl)pentanamide], the EC50 is 46 nM.

Regarding `CN(C(=O)C[C@H](CCN1CCCC(F)(F)C1)N(C)C(=O)c1nc(C2CCCC2)n(-c2ccccc2C(F)(F)F)n1)c1nccs1` [compound 474, (3S)-3-(1-{5-cyclopentyl-1-[2-(trifluoromethyl)phenyl]-1H-1,2,4-triazol-3-yl}-N-methylformamido)-5-(3,3-difluoropiperidin-1-yl)-N-methyl-N-(1,3-thiazol-2-yl)pentanamide], the EC50 worked out at 588 nM.

Regarding `CC(C)Cc1c(-c2ccccc2Cl)nc(C(=O)N[C@@H](CCN2CCCC(F)(F)C2)CC(=O)O)n1C` [compound 476, (3S)-3-{[4-(2-chlorophenyl)-1-methyl-5-(2-methylpropyl)-1H-imidazol-2-yl]formamido}-5-(3,3-difluoropiperidin-1-yl)pentanoic acid], the EC50 was more than 10000 nM.

With `CC(C)Cc1c(-c2ccccc2Cl)nc(C(=O)N[C@@H](CCN2CCCC(F)(F)C2)CC(=O)N(C)c2nccs2)n1C` [compound 477, (3S)-3-{[4-(2-chlorophenyl)-1-methyl-5-(2-methylpropyl)-1H-imidazol-2-yl]formamido}-5-(3,3-difluoropiperidin-1-yl)-N-methyl-N-(1,3-thiazol-2-yl)pentanamide], the EC50 is more than 10000 nM.

For `CC(C)Cc1c(-c2ccccc2Cl)nc(C(=O)N[C@@H](CCN2CCCC(F)(F)C2)CC(=O)NC2CCC2)n1C` [compound 478, (3S)-3-{[4-(2-chlorophenyl)-1-methyl-5-(2-methylpropyl)-1H-imidazol-2-yl]formamido}-N-cyclobutyl-5-(3,3-difluoropiperidin-1-yl)pentanamide], the EC50 is more than 10000 nM.

For the compound `O=C(O)C[C@H](CCN1CCCC(F)(F)C1)NC(=O)c1nc(-c2ncccc2C(F)(F)F)n(C2CCCC2)n1` [compound 512, (3S)-3-({1-cyclopentyl-5-[3-(trifluoromethyl)pyridin-2-yl]-1H-1,2,4-triazol-3-yl}formamido)-5-(3,3-difluoropiperidin-1-yl)pentanoic acid], the EC50 is 152 nM.

Take `O=C(O)C[C@H](CCN1CCCC(F)(F)C1)NC(=O)c1nc(C2CCCC2)n(-c2cccnc2C(F)(F)F)n1` [compound 513, (3S)-3-({5-cyclopentyl-1-[2-(trifluoromethyl)pyridin-3-yl]-1H-1,2,4-triazol-3-yl}formamido)-5-(3,3-difluoropiperidin-1-yl)pentanoic acid]: the EC50 is more than 10000 nM.

With `O=C(C[C@H](CCN1CCCC(F)(F)C1)NC(=O)c1nc(C2CCCC2)n(-c2cccnc2C(F)(F)F)n1)NC1CCC1` [compound 531, (3S)-N-cyclobutyl-3-({5-cyclopentyl-1-[2-(trifluoromethyl)pyridin-3-yl]-1H-1,2,4-triazol-3-yl}formamido)-5-(3,3-difluoropiperidin-1-yl)pentanamide], the EC50 was determined as 323 nM.

Regarding `O=C(C[C@H](CCN1CCCC(F)(F)C1)NC(=O)c1nc(-c2cccnc2C(F)(F)F)n(C2CCCC2)n1)NC1CCC1` [compound 532, (3S)-N-cyclobutyl-3-({1-cyclopentyl-5-[2-(trifluoromethyl)pyridin-3-yl]-1H-1,2,4-triazol-3-yl}formamido)-5-(3,3-difluoropiperidin-1-yl)pentanamide], the EC50 is 2540 nM.

`COCCN(C)C(=O)[C@H](CCc1ccccc1)NC(=O)c1nc(C2CCCC2)n(-c2ccccc2C(F)(F)F)n1` [compound 543, (2S)-2-({5-cyclopentyl-1-[2-(trifluoromethyl)phenyl]-1H-1,2,4-triazol-3-yl}formamido)-N-(2-methoxyethyl)-N-methyl-4-phenylbutanamide]: the EC50 came to 754 nM.

As to `COCCN(C)C(=O)[C@H](CCc1ccccc1)NC(=O)c1nc(-c2ccccc2C(F)(F)F)n(C2CCCC2)n1` [compound 569, (2S)-2-({1-cyclopentyl-5-[2-(trifluoromethyl)phenyl]-1H-1,2,4-triazol-3-yl}formamido)-N-(2-methoxyethyl)-N-methyl-4-phenylbutanamide], the EC50 was more than 10000 nM.

For the compound `O=C(O)C[C@H](CCN1CCC(F)(F)C1)NC(=O)c1nc(C2CCCC2)n(-c2ccccc2C(F)(F)F)n1` [compound 586, (3S)-3-({5-cyclopentyl-1-[2-(trifluoromethyl)phenyl]-1H-1,2,4-triazol-3-yl}formamido)-5-(3,3-difluoropyrrolidin-1-yl)pentanoic acid], the EC50 is 74 nM.

Consider `O=C(O)C[C@H](CCN1CCCC(F)(F)C1)NC(=O)c1cn(-c2ccccc2C(F)(F)F)c(C2CCCC2)n1` [compound 617, (3S)-3-({2-cyclopentyl-1-[2-(trifluoromethyl)phenyl]-1H-imidazol-4-yl}formamido)-5-(3,3-difluoropiperidin-1-yl)pentanoic acid], for which the EC50 is 13 nM.

For `O=C(N[C@@H](CCN1CCCC(F)(F)C1)Cc1nnn[nH]1)c1cn(-c2ccccc2C(F)(F)F)c(C2CCCC2)n1` [compound 620], the EC50 came to 8 nM.

What is called EC50 is the concentration needed to bring the measured effect to its halfway point.
